Results from patent US20220016146A1, “METHOD OF TREATING AGE-RELATED MACULAR DEGENERATION” (ZHUHAI QiWEl BIO-TECHNOLOGY LTD., priority 2018, published 2022).

Key:
Bacillus megaterium [1] = assay: Antibiotic sensitivity testing in petri dishes (MIC method); type: cell-based; conditions: FIG. 1; for sensitivity of Bacillus megaterium to antimicrobial agent / control of growth in vitro: 1*10^7 bacteria per culture, 37° C., 24 h
Method: The bacterial culture medium (HuanKai Microbial, Guangzhou, China) containing peptone 5 g, beef extract 3 g, NaCl 5 g, agar 15 g, and MnSO4 5 mg in 1 L ddH2O (pH=7.2) was prepared in conical flask (Drtech, Guangzhou, China) and was sterilized in the autoclave (HIRAYAMA, HEV-50, Japan) at 121° C. for 30 min. Antibiotics (ampicillin, vancomycin, neomycin, metronidazole, and tetracycline, purchased from Sigma, USA) at various concentrations were added into cooled medium. Bacillus megaterium (total 1*10^7 per culture) was cultured in the incubator (HettCube 200, Germany) at 37° C. for 24 h.
To test whether antibiotics can control the growth of Bacillus megaterium in vitro and in vivo, an antibiotic sensitivity screening test in petri dishes was carried out. The sensitivity of Bacillus megaterium to several major antimicrobial agents including Ampicillin, vancomycin, neomycin, metronidazole, and tetracycline were examined using the minimum inhibitory concentration (MIC) method.

Bacillus megaterium [2] = type: in vivo, monkey
Method: The inventors collected both AH and vitreous humor (VH) specimens from AMD patients and were able to detect B. megaterium DNA in both uncultured and cultured samples. The inventors further examined whether subretinal inoculation of AH and VH cultures which had B. megaterium, as well as the cultured single species of B. megaterium led to AMD like pathology in macaque. Briefly, about 20 CFU of bacteria (in 20 μl PBS) from AH, VH, and B. megaterium cultures were injected subretinally and PBS was used as a control. The fundus examination of macaque eye was performed before (Day 0) and after bacterial inoculation on Day 1, Day 3, Day 35 as well as Day 47. The PBS injection left only visible scar on the retina, while all bacterial inoculations led to drusenoid lesions on retinal tissues. Drusen-like nodules were also visible under the RPE layer. Fluorescence in situ hybridization results also located B. megaterium in drusenoid but not in the normal tissues post inoculation. An elevation in the expression of C5A, CFH, CASPASE1, and NLRP3 proteins was also detected in the B. megaterium infected drusenoid lesion and para-lesion tissues as compared to the uninfected normal retina in macaque.
Next, Bacillus megaterium subretinal inoculation model was used to test whether antibiotics might be able to change the bacteria-induced drusenoid pathology in monkey retinal tissues.

| Compound | fold less effective in controlling the growth of Bacillus megaterium (Bacillus megaterium [1]; compared with neomycin) | sensitivity of Bacillus megaterium to antimicrobial agent / control of growth in vitro (Bacillus megaterium [1]) | size of drusenoid lesion in retinal tissue (Bacillus megaterium [2]; intravitreous 0.5 mg, one injection on Day 2 post bacterial inoculation, monkey, FIG. 2) | ocular complications after intraocular administration (Bacillus megaterium [2]; intraocular administration in monkey (data not shown)) |
| --- | --- | --- | --- | --- |
| Cc1ncc([N+](=O)[O-])n1CCO [metronidazole] | 10000 fold |  |  |  |
| CN[C@H](CC(C)C)C(=O)N[C@H]1C(=O)N[C@@H](CC(N)=O)C(=O)N[C@H]2C(=O)N[C@H]3C(=O)N[C@H](C(=O)N[C@H](C(=O)O)c4cc(O)cc(O)c4-c4cc3ccc4O)[C@H](O)c3ccc(c(Cl)c3)Oc3cc2cc(c3O[C@@H]2O[C@H](CO)[C@@H](O)[C@H](O)[C@H]2O[C@H]2C[C@](C)(N)[C@H](O)[C@H](C)O2)Oc2ccc(cc2Cl)[C@H]1O [vancomycin] |  | able to inhibit the growth | reduction in the size of drusenoid lesion |  |
| neomycin |  | most sensitive |  | significant ocular complications including ophthalmatrophia |
